Experiments:
TCC-SUP cells = assay: End-point chemosensitivity assay, hematoporphyrin platinum derivatives, dark and irradiated (600–730 nm); type: cell-based, human; conditions: 1 μM concentration; hematoporphyrin-platinum series; bladder cancer cells TCC-SUP
Source text: (§1) Data of the cytotoxic effect was obtained, for instance, on the human tumor cell lines TCC-SUP and J82. The effect of the compounds was investigated in the dark and under irradiation with light at a wavelength of 600–730 nm. Selected compounds are clearly more activ cytotoxically under irradiation. There is a synergism between the cytotoxic effect of the platinum component and the photodynamic principle.
(§2) To determine the antiproliferative activity of the new porphyrin ligands and the corresponding platinum complexes with different amine non-leaving groups two bladder cancer cell lines TCC-SUP and J82 were selected as in vitro models.
(§3) To discriminate between the cytotoxic and phototoxic effects all experiments were carried out in duplicate. The cells were seeded into microplates and the test compounds were added after 48 h. One batch of the microplates was kept in the dark until the end of the experiment, whereas the other microplates were irradiated 48 h after addition of the substances for 10 min with a light dose of 24 J·cm^−2, before the plates were reincubated in the dark.
(§4) End-Point Chemosensitivity Assay.
Hematoporphyrin Platinum Derivatives Type.

[1] = tested on: bladder cancer cell lines TCC-SUP and J82; assay: End-point chemosensitivity assay, tetraarylporphyrin platinum derivatives, dark and irradiated (600–730 nm); type: cell-based, human; conditions: 1 μM concentration; tetraarylporphyrin-platinum series
Source text: as §1, §2, §3, §4
Tetraarylporphyrin Platinum Derivatives Type.

| Compound | T/Ccorr. (TCC-SUP cells) | T/Ccorr. [1] [%] |
| --- | --- | --- |
| N.N.[Cl][Pt][Cl] [cisplatin] | approximately 2% | – |
| (+)-trans-1,2-Diaminocyclohexane[2-(4-{10,15,20-tris[4-(1,4,7,10-tetraoxaundecyl)phenyl]porphyrin-5-yl}phenoxy)malonato]platinum(II) [compound 29] | – | ~57 |

Reference: patent publication US7087214B2, “Water-soluble porphyrin platinum compounds with high tumor selectivity and their use for the treatment of benign and malignant tumor diseases” (Zentaris GmbH, priority 2002, dated 2006)
